# Assay results from PMC5797931 (Frontiers in Pharmacology, 2018).
# What was measured:
# in vivo = test: in vivo; parameters: species or system piglets (Landrace × large white); conditions: male, Landrace × large white (Seghers Hybrid), pig, 120 ug
# Procedure: The current study was approved by the ethical committee of the Faculties of Veterinary Medicine and Bioscience Engineering of Ghent University (EC2014/184). Care and use of animals was in full compliance with the national (Belgian Royal Decree, [2013]) and European legislation (Anonymous, [2010]). […] Opti®, 6 months: […], Leuven, Belgium) and drinking water. Natural light was provided by translucent windows and the stable temperature was 23.2 ± 0.56°C. Higher temperatures were obtained in the rescue decks through heating lamps. In all age groups, a double lumen catheter was placed in the jugular vein according to Gasthuys et al. ([2017b]). After surgery, the piglets were housed individually to avoid displacement of the catheters. During single housing, a cotton towel was added to the decks and stables to mimic the smell of the other piglets. During the experiments, the stables were enriched with hanging chains, rubber toys and balls of different sizes. The environmental enrichment was rotated daily. […] Afterwards, the snout was closed during 30 s to ensure full dissolution of the lyophilisate. […] The CT-scans were processed using VGStudioMax (Volume Graphics GmbH, Heidelberg, Germany) and the body surface area (BSA) was determined after visualization and selection of the body surface in 3D (UGCT-Department of Physics and Astronomy, Ghent University, Ghent, Belgium). The GFR was determined as the clearance of the exogenous marker exo-iohexol (Gasthuys et al., [2017a]). […] Desmopressin plasma concentrations were determined at Aarhus University Hospital (Aarhus, Denmark) using a validated radioimmunoassay method as described by Emmeluth et al. […] Subsequently, based on a visual exploration of the plasma concentration-time profiles obtained in the growing piglets, a two-compartmental disposition model and a dual-input were evaluated to describe the absorption of the sublingual desmopressin lyophilisate. […]
# [1] = human, in vivo; cited from earlier work
smiles,measurement,setting,value
"NC(=O)CC[C@@H]1NC(=O)[C@H](Cc2ccccc2)NC(=O)[C@H](Cc2ccc(O)cc2)NC(=O)CCSSC[C@@H](C(=O)N2CCC[C@H]2C(=O)N[C@H](CCCN=C(N)N)C(=O)NCC(N)=O)NC(=O)[C@H](CC(N)=O)NC1=O [desmopressin, 1-desamino-8-D-arginine vasopressin]",CL/F,in vivo,6580 mL/min
same,Vd/F,in vivo,131 L
same,Cmax,in vivo; po,~0.25 ng/mL
same,"F, absolute oral bioavailability",[1],< 1%
